Data taken from patent publication US20090253709A1 (NATIONAL DEFENSE MEDICAL CENTER, priority 2008, published 2009).

What was measured:
Experiment in all cases: In vitro cytotoxicity, Development Therapeutics Program
Format in all cases: cell-based
786-0 = settings: 786-0, renal cancer; 1.0×10^−5 M
Description: (§1) From the in vitro experiments of the Development Therapeutics Program of the Cancer Research Institute, the United States, it was known that the synthetic heterocyclic anthraquinone derivatives of the present invention have different inhibition levels to the different cancer cell lines under the concentration of 1.0×10^−5 M. Please refer to Table 2, which is the result of in vitro cytotoxicity of 2,7-disubstituted anthraquinone derivatives of the present invention.

A498 = settings: A498, renal cancer; 1.0×10^−5 M
Description: as §1

ACHN = settings: renal cancer, 1.0×10^−5 M
Description: as §1

BT-549 = settings: BT-549, breast cancer; 1.0×10^−5 M
Description: as §1

CCRF-CEM = settings: leukemia, 1.0×10^−5 M
Description: as §1

HCT-116 = settings: HCT-116, colon cancer; 1.0×10^−5 M
Description: as §1

HCT-15 = settings: HCT-15, colon cancer; 1.0×10^−5 M
Description: as §1

HOP-62 = settings: HOP-62, non-small cell lung cancer; 1.0×10^−5 M
Description: as §1

HOP-92 = settings: HOP-92, non-small cell lung cancer; 1.0×10^−5 M
Description: as §1

HS 578T = settings: breast cancer, 1.0×10^−5 M
Description: as §1

K-562 = settings: K-562, leukemia; 1.0×10^−5 M
Description: as §1

KM12 = settings: KM12, colon cancer; 1.0×10^−5 M
Description: as §1

LOX IMVI = settings: melanoma, 1.0×10^−5 M
Description: as §1

M14 = settings: M14, melanoma; 1.0×10^−5 M
Description: as §1

MCF7 = settings: MCF7, breast cancer; 1.0×10^−5 M
Description: as §1

MDA-MB-231/ATCC = settings: breast cancer, 1.0×10^−5 M
Description: as §1

MDA-MB-435 = settings: MDA-MB-435, breast cancer; 1.0×10^−5 M
Description: as §1

MOLT-4 = settings: MOLT-4, leukemia; 1.0×10^−5 M
Description: as §1

NCI/ADR-RES = settings: breast cancer, 1.0×10^−5 M
Description: as §1

NCl-H226 = settings: NCl-H226, non-small cell lung cancer; 1.0×10^−5 M
Description: as §1

NCl-H322M = settings: non-small cell lung cancer, 1.0×10^−5 M
Description: as §1

NCl-H522 = settings: NCl-H522, non-small cell lung cancer; 1.0×10^−5 M
Description: as §1

OVCAR-3 = settings: OVCAR-3, ovarian cancer; 1.0×10^−5 M
Description: as §1

OVCAR-5 = settings: OVCAR-5, ovarian cancer; 1.0×10^−5 M
Description: as §1

OVCAR-8 = settings: OVCAR-8, ovarian cancer; 1.0×10^−5 M
Description: as §1

PC-3 = settings: PC-3, prostate cancer; 1.0×10^−5 M
Description: as §1

RPMI-8226 = settings: RPMI-8226, leukemia; 1.0×10^−5 M
Description: as §1

SF-268 = settings: SF-268, CNS cancer; 1.0×10^−5 M
Description: as §1

SK-MEL-28 = settings: SK-MEL-28, melanoma; 1.0×10^−5 M
Description: as §1

SK-MEL-2 = settings: SK-MEL-2, melanoma; 1.0×10^−5 M
Description: as §1

SK-OV-3 = settings: SK-OV-3, ovarian cancer; 1.0×10^−5 M
Description: as §1

SN12C = settings: renal cancer, 1.0×10^−5 M
Description: as §1

SNB-19 = settings: SNB-19, CNS cancer; 1.0×10^−5 M
Description: as §1

SNB-75 = settings: SNB-75, CNS cancer; 1.0×10^−5 M
Description: as §1

SR = settings: leukemia, 1.0×10^−5 M
Description: as §1

SW-620 = settings: SW-620, colon cancer; 1.0×10^−5 M
Description: as §1

UACC-257 = settings: UACC-257, melanoma; 1.0×10^−5 M
Description: as §1

UACC-62 = settings: UACC-62, melanoma; 1.0×10^−5 M
Description: as §1

SMILES | Cellular growth rate (%) (786-0) | Cellular growth rate (%) (A498) | Cellular growth rate (%) (ACHN) | Cellular growth rate (%) (BT-549) | Cellular growth rate (%) (CCRF-CEM) | Cellular growth rate (%) (HCT-116) | Cellular growth rate (%) (HCT-15) | Cellular growth rate (%) (HOP-62) | Cellular growth rate (%) (HOP-92) | Cellular growth rate (%) (HS 578T) | Cellular growth rate (%) (K-562) | Cellular growth rate (%) (KM12) | Cellular growth rate (%) (LOX IMVI) | Cellular growth rate (%) (M14) | Cellular growth rate (%) (MCF7) | Cellular growth rate (%) (MDA-MB-231/ATCC) | Cellular growth rate (%) (MDA-MB-435) | Cellular growth rate (%) (MOLT-4) | Cellular growth rate (%) (NCI/ADR-RES) | Cellular growth rate (%) (NCl-H226) | also measured
CN(C)CC(=O)Nc1ccc2c(c1)C(=O)c1cc(NC(=O)CN(C)C)ccc1C2=O [Compound 8, 2,7-Bis[2-(dimethylamino)acetamido]anthraquinone] | 68.60 | −6.39 | 66.43 | 85.36 | −13.21 | 19.07 | 16.26 | 28.97 | 56.14 | −6.11 | 34.91 | 66.95 | −52.34 | 75.04 | 7.92 | 4.49 | 68.36 | 29.12 | 47.84 | 89.14 | Cellular growth rate (%) (NCl-H322M): 32.42%; Cellular growth rate (%) (NCl-H522): 61.82%; Cellular growth rate (%) (OVCAR-3): 43.63%; Cellular growth rate (%) (OVCAR-5): 73.15%; Cellular growth rate (%) (OVCAR-8): 32.31%; Cellular growth rate (%) (PC-3): 59.00%; Cellular growth rate (%) (RPMI-8226): 34.97%; Cellular growth rate (%) (SF-268): 64.92%; Cellular growth rate (%) (SK-MEL-28): 32.11%; Cellular growth rate (%) (SK-MEL-2): −30.35%; Cellular growth rate (%) (SK-OV-3): 70.26%; Cellular growth rate (%) (SN12C): 27.99%; Cellular growth rate (%) (SNB-19): 79.57%; Cellular growth rate (%) (SNB-75): 76.12%; Cellular growth rate (%) (SR): −46.45%; Cellular growth rate (%) (SW-620): 23.36%; Cellular growth rate (%) (UACC-257): −1.84%; Cellular growth rate (%) (UACC-62): 22.31%
CCN(CC)CCC(=O)Nc1ccc2c(c1)C(=O)c1cc(NC(=O)CCN(CC)CC)ccc1C2=O [Compound 16, 2,7-Bis[3-(diethylamino)propionamido]anthraquinone] | 24.72 | −38.76 | 11.09 | 57.04 | −6.02 | −32.45 | 17.42 | 11.65 | 9.70 | −23.77 | 8.10 | 21.82 | 3.39 | 62.79 | 9.34 | 31.32 | 71.07 | 5.42 | 59.52 | 49.89 | Cellular growth rate (%) (NCl-H322M): 44.75%; Cellular growth rate (%) (NCl-H522): 27.98%; Cellular growth rate (%) (OVCAR-3): 10.39%; Cellular growth rate (%) (OVCAR-5): 33.63%; Cellular growth rate (%) (OVCAR-8): 4.30%; Cellular growth rate (%) (PC-3): 13.59%; Cellular growth rate (%) (RPMI-8226): −29.02%; Cellular growth rate (%) (SF-268): 35.18%; Cellular growth rate (%) (SK-MEL-28): 2.56%; Cellular growth rate (%) (SK-MEL-2): −60.38%; Cellular growth rate (%) (SK-OV-3): 44.02%; Cellular growth rate (%) (SN12C): 8.63%; Cellular growth rate (%) (SNB-19): 75.84%; Cellular growth rate (%) (SNB-75): 46.62%; Cellular growth rate (%) (SR): −0.39%; Cellular growth rate (%) (SW-620): 16.93%; Cellular growth rate (%) (UACC-257): −14.46%; Cellular growth rate (%) (UACC-62): 44.45%
O=C(CCN1CCCC1)Nc1ccc2c(c1)C(=O)c1cc(NC(=O)CCN3CCCC3)ccc1C2=O [Compound 18, 2,7-Bis[3-(pyrrolidino)propionamido]anthraquinone] | 40.51 | −0.91 | 29.65 | 76.91 | 3.74 | 10.51 | 56.14 | 18.79 | 7.04 | 5.26 | 6.40 | 32.55 | 30.74 | 53.88 | 13.35 | 30.47 | 68.84 | 22.97 | 80.59 | 41.10 | Cellular growth rate (%) (NCl-H322M): 45.79%; Cellular growth rate (%) (NCl-H522): 29.16%; Cellular growth rate (%) (OVCAR-3): 36.88%; Cellular growth rate (%) (OVCAR-5): 18.81%; Cellular growth rate (%) (OVCAR-8): 19.58%; Cellular growth rate (%) (PC-3): 21.66%; Cellular growth rate (%) (RPMI-8226): 47.90%; Cellular growth rate (%) (SF-268): 26.67%; Cellular growth rate (%) (SK-MEL-28): 14.99%; Cellular growth rate (%) (SK-MEL-2): −45.21%; Cellular growth rate (%) (SK-OV-3): 27.14%; Cellular growth rate (%) (SN12C): 6.68%; Cellular growth rate (%) (SNB-19): 66.97%; Cellular growth rate (%) (SNB-75): 77.47%; Cellular growth rate (%) (SR): 19.75%; Cellular growth rate (%) (SW-620): 20.01%; Cellular growth rate (%) (UACC-257): −17.88%; Cellular growth rate (%) (UACC-62): 42.72%
